Where “and” joins values, the source holds several entries; their conditions need not be identical. Identical values can stand only once. Toxic doses and inconclusive results are not listed. No stated cut-off is given here; in the data, active means T/C of 150% or more; inactive means T/C below 125%.
Tested on: L1210 leukemia ip in BDF1 mice, survival T/C
Test: NCI In Vivo Anticancer Drug Screen. Data for tumor model L1210 Leukemia (intraperitoneal) in B6D2F1 (BDF1) mice
Details: endpoint: mean survival time, higher = longer survival
In short: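 Value reflects the ratio of survival in compound-treated mice to survival in vehicle-treated controls, with both groups carrying the same transplanted tumor.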

[1] = dose: 100.0 mg/kg/injection, schedule: Q01DX009 (ip), vehicle: Klucel (hydroxypropylcellulose) (HPC)
[2] = dose: 100.0 mg/kg/injection, schedule: Q04DX003 (ip), vehicle: Klucel (hydroxypropylcellulose) (HPC)
[3] = dose: 200.0 mg/kg/injection, schedule: Q01DX009 (ip), vehicle: Klucel (hydroxypropylcellulose) (HPC)
[4] = dose: 200.0 mg/kg/injection, schedule: Q04DX003 (ip), vehicle: Klucel (hydroxypropylcellulose) (HPC)
[5] = dose: 400.0 mg/kg/injection, schedule: Q01DX009 (ip), vehicle: Klucel (hydroxypropylcellulose) (HPC)
[6] = dose: 400.0 mg/kg/injection, schedule: Q04DX003 (ip), vehicle: Klucel (hydroxypropylcellulose) (HPC)
[7] = dose: 50.0 mg/kg/injection, schedule: Q01DX009 (ip), vehicle: Klucel (hydroxypropylcellulose) (HPC)
[8] = dose: 50.0 mg/kg/injection, schedule: Q04DX003 (ip), vehicle: saline with Tween-80
[9] = dose: 100.0 mg/kg/injection, schedule: Q04DX003 (ip), vehicle: saline with Tween-80
[10] = dose: 200.0 mg/kg/injection, schedule: Q04DX003 (ip), vehicle: saline with Tween-80
[11] = dose: 400.0 mg/kg/injection, schedule: Q04DX003 (ip), vehicle: saline with Tween-80
[12] = dose: 100.0 mg/kg/injection, schedule: Q01DX001 (ip), vehicle: saline
[13] = dose: 25.0 mg/kg/injection, schedule: Q01DX009 (ip), vehicle: saline with Tween-80
[14] = dose: 50.0 mg/kg/injection, schedule: Q01DX009 (ip), vehicle: saline with Tween-80
[15] = dose: 100.0 mg/kg/injection, schedule: Q01DX009 (ip), vehicle: saline with Tween-80
[16] = dose: 100.0 mg/kg/injection, schedule: Q04DX002 (ip), vehicle: Klucel (hydroxypropylcellulose) (HPC)
[17] = dose: 200.0 mg/kg/injection, schedule: Q04DX002 (ip), vehicle: Klucel (hydroxypropylcellulose) (HPC)
[18] = dose: 100.0 mg/kg/injection, schedule: Q01DX001 (ip), vehicle: carboxymethylcellulose (CMC)
[19] = dose: 200.0 mg/kg/injection, schedule: Q01DX001 (ip), vehicle: carboxymethylcellulose (CMC)
[20] = dose: 400.0 mg/kg/injection, schedule: Q01DX001 (ip), vehicle: carboxymethylcellulose (CMC)
[21] = dose: 100.0 mg/kg/injection, schedule: Q01DX001 (ip), vehicle: Klucel (hydroxypropylcellulose) (HPC)
[22] = dose: 200.0 mg/kg/injection, schedule: Q01DX001 (ip), vehicle: Klucel (hydroxypropylcellulose) (HPC)
[23] = dose: 400.0 mg/kg/injection, schedule: Q01DX001 (ip), vehicle: Klucel (hydroxypropylcellulose) (HPC)
[24] = dose: 100.0 mg/kg/injection, schedule: Q01DX001 (ip), vehicle: saline with Tween-80
[25] = dose: 200.0 mg/kg/injection, schedule: Q01DX001 (ip), vehicle: saline with Tween-80
[26] = dose: 400.0 mg/kg/injection, schedule: Q01DX001 (ip), vehicle: saline with Tween-80
[27] = dose: 200.0 mg/kg/injection, schedule: Q01DX001 (ip), vehicle: saline
[28] = dose: 400.0 mg/kg/injection, schedule: Q01DX001 (ip), vehicle: saline
[29] = dose: 400.0 mg/kg/injection, schedule: Q04DX002 (ip), vehicle: Klucel (hydroxypropylcellulose) (HPC)

Measured: T/C

CC(C)(C)NC(=O)CCC1C(NC(=O)C(C)(C)C)C2(Cl)C(Cl)=C(Cl)C1(Cl)C2(Cl)Cl (centres undefined)
inactive: [1] 90 % of control | [2] 92 % of control | [3] 90 % of control | [4] 92 % of control | [5] 90 % of control | [6] 93 % of control

CCOC(/C=C/c1ccccc1)OCC
inactive: dose: 100.0 mg/kg/injection, schedule: Q04DX003 (ip), vehicle: saline 93 % of control | dose: 200.0 mg/kg/injection, schedule: Q04DX003 (ip), vehicle: saline 93 % of control | dose: 400.0 mg/kg/injection, schedule: Q04DX003 (ip), vehicle: saline 98 % of control

CN(C)c1ccc(CNc2ccc(Cl)cc2)cc1
inactive: [2] 91 % of control | [4] 89 % of control | [6] 93 % of control

O=Cc1cn(C2CC(O)C(CO)O2)c(=O)[nH]c1=O (centres undefined)
inactive: [7] 117 % of control | [8] 103 % of control | dose: 100.0 mg/kg/injection, schedule: Q01DX005 (ip), vehicle: saline 108 % of control | [9] 99 % of control | dose: 200.0 mg/kg/injection, schedule: Q01DX005 (ip), vehicle: saline 110 % of control | [10] 102 % of control | [5] 114 % of control | [11] 96 % of control

COc1cccc(/C=C/c2cnc3ccccc3n2)c1OC
inactive: [7] 104 % of control | [1] 92 % of control

CNC(=O)Oc1ccccc1C(Cl)(Cl)Cl
inactive: [7] 97 % of control | [1] 101 % of control | [3] 112 % of control

CCCCCCCCCOCC(O)COc1ccccc1[N+](=O)[O-] (centres undefined)
inactive: dose: 100.0 mg/kg/injection, schedule: Q04DX003 (ip), vehicle: saline sonified 113 % of control | dose: 200.0 mg/kg/injection, schedule: Q04DX003 (ip), vehicle: saline sonified 95 % of control | dose: 400.0 mg/kg/injection, schedule: Q04DX003 (ip), vehicle: saline sonified 98 % of control

CCCCN(CCCC)CC(O)c1ccnc2cc3c(cc12)OCO3 (centres undefined)
inactive: dose: 25.0 mg/kg/injection, schedule: Q01DX009 (ip), vehicle: other 102 % of control | dose: 50.0 mg/kg/injection, schedule: Q01DX009 (ip), vehicle: other 110 % of control | [12] 97 % of control | dose: 100.0 mg/kg/injection, schedule: Q01DX009 (ip), vehicle: other 111 % of control

NNC(=O)OC12CC3CC(CC(C3)C1)C2
inactive: [13] 90 % of control | [14] 88 % of control | [15] 98 % of control | [9] 94 % of control

NC(c1ccccc1)C(O)c1ccccc1 (centres undefined)
inactive: dose: 37.5 mg/kg/injection, schedule: Q04DX003 (ip), vehicle: saline 98 % of control | dose: 75.0 mg/kg/injection, schedule: Q04DX003 (ip), vehicle: saline 92 % of control | dose: 150.0 mg/kg/injection, schedule: Q04DX003 (ip), vehicle: saline 101 % of control

O=[N+]([O-])c1ccc2c(c1)OCCOCCOCCOCCO2
inactive: [16] 95 % of control | dose: 100.0 mg/kg/injection, schedule: Q04DX002 (ip), vehicle: saline with Tween-80 93 % of control | [17] 103 % of control | dose: 200.0 mg/kg/injection, schedule: Q04DX002 (ip), vehicle: saline with Tween-80 104 % of control | dose: 400.0 mg/kg/injection, schedule: Q04DX002 (ip), vehicle: saline with Tween-80 87 % of control

Nc1ccc(S(=O)[O-])cc1.Nc1ccc(S(=O)[O-])cc1.[Zn+2]
inactive: dose: 75.0 mg/kg/injection, schedule: Q01DX001 (ip), vehicle: saline 95 % of control | dose: 150.0 mg/kg/injection, schedule: Q01DX001 (ip), vehicle: saline 96 % of control | dose: 300.0 mg/kg/injection, schedule: Q01DX001 (ip), vehicle: saline 102 % of control

COc1ccc(/C(=C(/CC(=O)O)C(=O)OC(C)(C)C)c2cc(OC)c(OC)c(OC)c2)cc1OC
inactive: [18] 96 % of control | [19] 102 % of control | [20] 97 % of control

CC(=O)NC(CSC(=S)N(C)C)C(=O)O (centres undefined)
inactive: dose: 50.0 mg/kg/injection, schedule: Q01DX009 (ip), vehicle: saline 97 % of control | dose: 100.0 mg/kg/injection, schedule: Q01DX009 (ip), vehicle: saline 93 % of control | dose: 200.0 mg/kg/injection, schedule: Q01DX009 (ip), vehicle: saline 101 % of control

CN(C)CCNCC(=O)CC(O)(C(F)(F)F)C(F)(F)F
inactive: [21] 96 % of control | [2] 108 % of control | [22] 109 % of control | [4] 97 % of control | [23] 104 % of control | [6] 113 % of control

CC(=O)Nc1ccc(CC(=O)O)cc1
inactive: [24] 96 % of control | [25] 93 % of control | [26] 100 % of control

CC(=O)Nc1ccc(Cc2ccc(NC(C)=O)cc2N)c(N)c1
inactive: dose: 50.0 mg/kg/injection, schedule: Q01DX001 (ip), vehicle: saline 96 % of control | [12] 98 % of control | [27] 104 % of control | [28] 92 % of control

CC(=O)Nc1ncc(/C=C/c2ccc([N+](=O)[O-])cc2)c(NC(C)=O)n1
inactive: [21] 100 % of control | [22] 87 % of control | [23] 87 % of control

Cc1ncc(C(N)=O)c(C)n1
inactive: [12] 95 % of control | [27] 101 % of control | [28] 101 % of control

Clc1ccc(/C=N/N=C/c2ccc(Cl)cc2Cl)c(Cl)c1
inactive: [16] 98 % of control | [17] 98 % of control | [29] 102 % of control

CSc1ccccc1C1CCCCCC1OS(=O)(=O)c1ccc(C)cc1 (centres undefined)
inactive: dose: 15.0 mg/kg/injection, schedule: Q01DX001 (ip), vehicle: carboxymethylcellulose (CMC) 96 % of control | dose: 30.0 mg/kg/injection, schedule: Q01DX001 (ip), vehicle: carboxymethylcellulose (CMC) 102 % of control

O=C(c1cccs1)c1c(C(F)(F)F)oc2c(c1=O)C=CC2
inactive: [18] 100 % of control | [19] 87 % of control | [20] 89 % of control

Cc1cc(OCCOC(=O)Nc2cccc(C(F)(F)F)c2)cc(C)c1Cl
inactive: [13] 102 % of control | [14] 102 % of control | [15] 98 % of control and 118 % of control | dose: 200.0 mg/kg/injection, schedule: Q01DX009 (ip), vehicle: saline with Tween-80 93 % of control | dose: 400.0 mg/kg/injection, schedule: Q01DX009 (ip), vehicle: saline with Tween-80 91 % of control

Cc1ccc(S(=O)(=O)Oc2ccc3ccccc3c2)cc1
inactive: [15] 88 % of control | [9] 98 % of control | [10] 86 % of control | [11] 86 % of control

CCOC(=O)c1c[nH]c2c(Cl)ccc(-c3ccccc3)c2c1=O
inactive: [24] 98 % of control | [25] 96 % of control | [26] 93 % of control

CC(C)CC(C=O)(CCN(C)C)c1cccc2ccccc12 (centres undefined)
inactive: dose: 12.5 mg/kg/injection, schedule: Q04DX003 (ip), vehicle: saline with Tween-80 107 % of control | dose: 25.0 mg/kg/injection, schedule: Q04DX003 (ip), vehicle: saline with Tween-80 103 % of control | [8] 92 % of control

CCCS(=O)(=O)N1CC(C)OC(C)C1 (centres undefined)
inactive: [16] 91 % of control | [17] 91 % of control | [29] 89 % of control

c1ccc(-c2cccc3c2N=C2C3=Nc3c2cccc3-c2ccccc2)cc1
inactive: [2] 96 % of control | [4] 95 % of control | [6] 93 % of control

COc1ccc(NC(=O)C(Br)C(Br)c2ccccc2)c(Cl)c1 (centres undefined)
inactive: [1] 102 % of control | [3] 97 % of control | [5] 96 % of control
